Read-outs that look alike come from different tables or passages of the source.
Legend:
[1] = aqueous solution, cited from earlier work
[2] = Stability of epinephrine formulations after 1 month storage at 50° C. (HPLC potency, degradants, pH, appearance, O.D.); type: physicochemical
Description: Selected samples were also tested for drug chirality. The potency and chirality of drug were analyzed using HPLC methods. The degree of coloration was visually inspected and analytically measured their optical densities using a UV/VIS spectrophotometer at the maximum absorption wavelength (λmax) at 485 nm.

[3] = 1:10 cysteine-to-drug complex and commercial formulation
[4] = non-complex, acetylcysteine levels
[5] = non-complex, mixed antioxidants
[6] = non-complex, thioglycerol levels
[7] = pediatric formulations (1:2000)

Structure (SMILES)	association constant (K) of the inclusion complex with SBEβCD ([1]; pH 3.5) [M⁻¹]	association constant (K) of the inclusion complex with SBEβCD ([1]; pH 5.5) [M⁻¹]	Appearance ([2]; 1:1 cysteine-to-drug)	O.D. (Absorbance at λmax = 485 nm) ([2]; 1:1 cysteine-to-drug)	Appearance [2, 3]	O.D. (Absorbance at λmax = 485 nm) [2, 3]	Appearance ([2]; 2:1 cysteine-to-drug)	O.D. (Absorbance at λmax = 485 nm) ([2]; 2:1 cysteine-to-drug)	Appearance ([2]; 5:1 cysteine-to-drug)	O.D. (Absorbance at λmax = 485 nm) ([2]; 5:1 cysteine-to-drug)	Appearance [2, 4]	O.D. (Absorbance at λmax = 485 nm) [2, 4]	Appearance ([2]; non-complex, cysteine levels)	O.D. (Absorbance at λmax = 485 nm) ([2]; non-complex, cysteine levels)	Appearance [2, 5]	O.D. (Absorbance at λmax = 485 nm) [2, 5]	Appearance [2, 6]	O.D. (Absorbance at λmax = 485 nm) [2, 6]	Appearance [2, 7]	O.D. (Absorbance at λmax = 485 nm) [2, 7]
CNCC(O)c1ccc(O)c(O)c1 (single isomer, unassigned; (-)) [epinephrine, (−)-3,4-Dihydroxy-α-[(methylamino)methyl]benzyl alcohol]	488	111	–	–	–	–	–	–	–	–	–	–	–	–	–	–	–	–	–	–
II [0.0005N Iodine]	–	–	Slightly brownish	0.1206	Slightly brownish	0.1354	Slightly brownish	0.1206	Slightly brownish	0.1290	Slightly brownish	0.1354	Slightly brownish	0.1354	Slightly brownish	0.1354	Slightly brownish	0.1354	Slightly brownish	0.1354

Source: patent US11925608B2 (YS PHARMTECH, priority 2017, dated 2024)
